{"source": "ChEMBL document CHEMBL2034861", "about": "“Tyrosyl-DNA phosphodiesterase 1 inhibitor from an anamorphic fungus” (J Nat Prod, 2012)", "key": {"[1]": {"system": "Mus musculus", "assay": "Toxicity in nude mouse KSN assessed as weight loss at 2 mg/kg, ip qd administered every other day for 19 days measured on day 21 relative to vehicle treated control", "type": "organism-based", "set-up": "dose 2 mg/kg, route intraperitoneal", "conditions": "in vivo, 456 h"}, "[2]": {"system": "HT-29", "assay": "Antitumor activity against human HT-29 cells xenografted in nude mouse KSN assessed as reduction in tumor volume at 2 mg/kg, ip qd administered every other day from day 7 post-tumor injection for 19 days measured on day 21 relative to vehicle treated control", "type": "functional", "conditions": "route intraperitoneal"}, "[3]": {"system": "HeLa", "assay": "Antiproliferative activity against human HeLa cells after 48 hrs by WST-8 assay", "type": "functional, cell-based"}, "[4]": {"system": "HT-29", "assay": "Antiproliferative activity against human HT-29 cells after 48 hrs by WST-8 assay", "type": "functional, cell-based", "conditions": "HT-29, 48 h"}, "[5]": {"target": "Tyrosyl-DNA phosphodiesterase 1 (Homo sapiens, UniProt Q9NUW8)", "sequence (Q9NUW8 whole entry)": "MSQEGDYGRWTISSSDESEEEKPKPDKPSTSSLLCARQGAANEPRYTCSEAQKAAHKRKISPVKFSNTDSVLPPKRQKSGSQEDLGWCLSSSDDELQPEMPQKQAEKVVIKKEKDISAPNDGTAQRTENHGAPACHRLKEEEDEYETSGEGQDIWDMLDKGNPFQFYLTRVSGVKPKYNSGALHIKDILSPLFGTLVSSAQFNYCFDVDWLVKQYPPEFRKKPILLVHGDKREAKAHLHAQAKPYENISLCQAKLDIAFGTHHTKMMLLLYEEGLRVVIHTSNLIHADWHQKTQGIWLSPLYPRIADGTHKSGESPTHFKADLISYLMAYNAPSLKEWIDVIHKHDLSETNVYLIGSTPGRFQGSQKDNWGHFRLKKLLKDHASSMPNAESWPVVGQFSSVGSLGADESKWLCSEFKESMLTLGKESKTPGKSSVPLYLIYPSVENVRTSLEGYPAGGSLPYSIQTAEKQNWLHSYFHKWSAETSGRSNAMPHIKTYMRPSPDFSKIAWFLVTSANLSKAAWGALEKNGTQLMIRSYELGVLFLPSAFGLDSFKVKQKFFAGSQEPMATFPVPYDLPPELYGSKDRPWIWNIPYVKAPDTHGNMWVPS", "assay": "Inhibition of human Tdp1 using 3'-phosphate-(4-methylumbelliferone)-thymidine as substrate after 180 mins by spectrophotometry"}, "[6]": {"system": "NCI-H2052", "assay": "Antiproliferative activity against human NCI-H2052 cells after 48 hrs by WST-8 assay", "type": "functional, cell-based", "conditions": "NCI-H2052, 48 h"}, "[7]": {"system": "Mus musculus", "assay": "Toxicity in nude mouse KSN assessed as adverse effects at 2 mg/kg, ip qd administered every other day for 19 days measured on day 21 relative to vehicle treated control", "type": "organism-based", "set-up": "dose 2 mg/kg, route intraperitoneal", "conditions": "in vivo, 456 h"}, "[8]": {"assay": "Antiproliferative activity against human NAMALWA cells after 48 hrs by WST-8 assay", "type": "functional, cell-based", "conditions": "NAMALVA"}}, "data": [{"compound": "CCCCC(C)C1=CC(=O)C2=C(O[C@]3(C)CC[C@H]4O[C@@H]([C@@](C)(O)C(=O)O)CC[C@]4(C)[C@H]3C2)C1=O", "note": "(stereo partly drawn)", "values": [{"measurement": "Activity", "setting": "[1]", "value": "Non-toxic"}, {"measurement": "T/C", "setting": "[2]", "value": 0.51}, {"measurement": "IC50", "setting": "[3]", "value": 9.2, "unit": "µM"}, {"measurement": "IC50", "setting": "[4]", "value": 4, "unit": "µM"}, {"measurement": "IC50", "setting": "[5]", "value": 18, "unit": "µM"}, {"measurement": "IC50", "setting": "[6]", "value": 13, "unit": "µM"}, {"measurement": "Activity", "setting": "[7]", "value": "Non-toxic"}, {"measurement": "IC50", "setting": "[8]", "value": 3.5, "unit": "µM"}]}]}
